Data set [1] addresses T1, elastase (Sus scrofa, UniProt P00772).
T1 construct: purchased Invitrogen
Briefly: Elastase inhibitory activity (EnzChek Elastase Assay Kit, DQ elastin). It counts as biochemical. As for the experimental part: Elastase inhibitory activity was performed by purchasing EnzChek® Elastase Assay Kit (600 Assays) reagent from Invitrogen. First, DQ elastin stock solution (1 mg/ml) was prepared by adding 1.0 ml of DDW to 1 mg DQ elastin vial. The 18 ml of DDW was added to 2 ml of 10× reaction buffer, so as to dilute reaction buffer. Then, an elastase enzyme reagent was prepared, and diluted with reaction buffer to a final concentration of 0.2 U/ml as working solution. Three samples of 50 ? each were prepared in a 96-well plate. The 50 ? of reaction buffer was added to 50 ? of DQ elastin and sample blank, and 50 ? of working solution was added to a sample, which were then left in a light-blocked state at room temperature for about one hour, and then fluorescence intensity was measured at excitation wavelength 505 nm and emission wavelength 515 nm using ELISA plate reader (VICTOR X3™, PerkinElmer, US).
Copper peptide (Comparative Example 12) and EGCg (Comparative Example 13), which is widely used as a raw material for functional cosmetics, were prepared at the same concentration and used as a positive control.
EGCg (epigallocatechin gallate) is a kind of polyphenol, which is an extract of green tea leaves, and is used as a cosmetic raw material for anti-oxidation, inflammation reduction, and wrinkle alleviation, and Copper peptide is used as a raw material for promoting wound healing, strengthening skin elasticity, and increasing subcutaneous fat layer to suppress skin aging due to excellent skin regeneration ability.

Data set [2] is described as follows: HS68 cytotoxicity test (MTS cell viability). Format: cell-based. Conditions: human, HS68 cells (skin fibroblasts). As for the experimental part: Skin fibroblast HS68 cells were used. The medium was DMEM high glucose (SH30243.01, HyClone™, Logan, UT, USA) medium containing 10% fetal bovine serum (FBS, Lonza, Valais, Switzerland) medium. The cell lines were cultured in an incubator adjusted to 95% humidity, 5% CO2 and 37° C., and at this time, a medium antibiotic (Penicillin streptomycin, Gibco, Calif., USA) was used to suppress contamination or proliferation of microorganisms.
Cell viability was measured using MTS (CellTiter 96® AQueous One Solution Cell Proliferation Assay, Promega, USA) reagent. The cells were divided at a concentration of 1×10^4 cells/well in a 96-well plate and then stabilized for 24 hours in an incubator controlled to 95% humidity, 5% CO2 and 37° C. After that, the samples were treated for each concentration and cultured for 24 hours in an incubator controlled to 95% j humidity, 5% CO2 and 37° C. After the medium was removed, 9 ml of medium (DMEM high, free FBS) was added to 1 ml of the reagent and diluted, and then 100 ul of the diluted solution was treated per well. After the reaction at 37° C. for 60 minutes, absorbance was measured at 490 nm with microplate reader (Molecular Devices, VersaMax ELISA Microplate Reader, USA). Cell viability was represented by absorbance of a sample-treated group compared to a control group not treated with the sample.

In general, inhibition refers to the change of the read-out against control, counted positive when it falls. Higher therefore signals strong suppression. Broadly, the IC50 is the concentration needed to halve the response being measured. Low values mean higher potency, high ones lower potency. What is called viability is a read-out of living cells in per cent, often relative to untreated cells.

T1 sequence (P00772 27-266): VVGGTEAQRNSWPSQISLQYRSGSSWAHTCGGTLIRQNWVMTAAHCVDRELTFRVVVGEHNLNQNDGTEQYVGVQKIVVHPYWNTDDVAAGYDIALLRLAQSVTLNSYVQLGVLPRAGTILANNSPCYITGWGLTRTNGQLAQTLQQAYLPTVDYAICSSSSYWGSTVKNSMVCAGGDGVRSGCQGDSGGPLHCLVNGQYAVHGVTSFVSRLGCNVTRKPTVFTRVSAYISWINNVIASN

`NC(=O)C[C@H](NC(=O)CNC(=O)[C@@H]1CCCN1)C(=O)O` [PGN, Pro-Gly-Asn, reference compound]: in data set [1] (0.02 mg/ml), at 20 µg/mL the inhibition was 1.8 ± 0.6%. The compound further yielded an inhibition at 40 µg/mL in data set [1] (0.04 mg/ml) of 2.8 ± 1.2%. This compound also yielded an inhibition at 60 µg/mL in data set [1] (0.06 mg/ml) of 6.1 ± 1.9%. In addition, 100 µg/mL produced 7.5 ± 3.2% inhibition in data set [1] (0.1 mg/ml). The inhibition at 1000 µg/mL in data set [1] (1 mg/ml) was found to be 7.5%. Moreover, in data set [1] (FIGS. 8 and 9), the IC50 was 384 µM. Also, in data set [2] (HS68, 1 μg/ml), the viability at 24 h, 1 µg/mL amounted to 104 ± 3.9%. Moreover, the viability at 24 h, 10 µg/mL in data set [2] (HS68, 10 μg/ml) came to 117 ± 11.5%. Also, the viability at 24 h, 50 µg/mL in data set [2] (HS68, 50 μg/ml) amounted to 128 ± 2.2%. Moreover, in data set [2] (HS68, 100 μg/ml), the viability at 24 h, 100 µg/mL stood at 130.1 ± 0.1%.

For the origin of these results see patent US20230312643A1, “PEPTIDE DERIVATIVE WITH COLLAGENASE INHIBITORY ACTIVITY, AND USE THEREOF” (SUNMARINE BIOTECH, priority 2020, published 2023).
